Results: paper PMC5700124 (Scientific Reports, 2017)
pKd: −log10 of the molar value. Entries after “also recorded” stand apart in the source; their conditions may differ. Where two headings read alike, the source gives them in different places.

Key:
[1] = tested on: α7 nicotinic acetylcholine receptors; design: method as in PMID 26455500; details: 1.24 mg/kg; cited from earlier work
α2 adrenoceptor = details: anterior forebrain; autoradiography; pH 7.7, 22 °C, mg^2+ 0; blocking of NS phentolamine 10 μM; ref Boyajian et al.[41]; cited from earlier work
plasma proteins [2] = tested on: plasma proteins; design: method as in PMID 7836362; details: cited from earlier work
α1 and α2 adrenoceptors = tested on: α1 and α2 adrenoceptors; design: method as in PMID 16153828; details: cited from earlier work
plasma proteins [3] = details: in the circulation; cited from earlier work
α2 adrenoceptors [4] = test: PET of [^11C]yohimbine binding in rat brain at baseline and at challenge with unlabeled yohimbine; details: for Binding potentials, BPND, percent-wise change (%) / Volumes of Distribution, VT, percent-wise change (%): COLD vs BASE, individual rats 1-5
α2 adrenoceptor subtypes = tested on: α2 adrenoceptor subtypes; design: method as in PMID 7908054; details: cited from earlier work
plasma proteins [5] = test: Plasma ultrafiltration, ex vivo (plasma free fraction fP of [^11C]yohimbine); type: in vitro ADME, rat; details: 0.3 mg/kg yohimbine i.v., P < 0.05
Procedure: In the ex vivo experiment, a separate group of six female Sprague Dawley rats were subjected to plasma ultrafiltration and treated identically to animals that underwent PET acquisition. […] We centrifuged the blood samples in heparinized tubes for 20 min at 4 °C to generate plasma and stored the samples at −50 °C.
To measure fP , we used the Centrifree centrifugal filter device (Millipore, Bedford, MA) with a molecular cutoff of 30 kDa for all samples. […] On the day of fP determination, the plasma samples were thawed in room temperature in 20 min. […] After 10 minutes incubation at room temperature, aliquots of 50 μl of this solution were used to measure the total activity (unfiltered plasma). […] The activity of filtered plasma was determined in triplicates. All samples were counted in a gamma device (Packard Cobra Gamma Counter, Model D5003). […] The correction factor, r, was determined as the ratio of the activity in the phosphate buffer before filtration, Abuffer(total), to the filtered buffer, Abuffer(ultrafiltrate),38 r=Abuffer(total)/Abuffer(ultrafiltrate), from which the plasma-free fraction, fP , was calculated as the ratio of the activity of the filtered plasma, Aplasma(ultrafiltrate), to the unfiltered plasma, Aplama(total), multiplied by the correction factor, r, for recovery,39 fP=rAplasma(ultrafiltrate)/Aplasma(total),

[6] = rats; cited from earlier work
[7] = design: method as in Jakobsen et al.[14]; details: pigs, ref Jakobsen et al.[14], cited from earlier work
α2 adrenoceptors [8] = tested on: α2 adrenoceptors; design: method as in Jakobsen and colleagues[14]; details: porcine brain, ref Jakobsen and colleagues[14], cited from earlier work
[9] = tested on: [^11C]mirtazepin binding in porcine brain; design: method as in Smith et al.[34]; details: ref Smith et al.[34], cited from earlier work
[10] = tested on: translocator protein (TSPO); design: method as in Hilmer et al.[39]; details: 0.1 ng/kg i.v.; ref Hilmer et al.[39]; cited from earlier work
[11] = CEREB cerebellum, unlabeled yohimbine 0.3 mg/kg i.v.
[12] = CP caudate putamen, unlabeled yohimbine 0.3 mg/kg i.v.
[13] = HYP hypothalamus, unlabeled yohimbine 0.3 mg/kg i.v.
[14] = MC motor cortex, unlabeled yohimbine 0.3 mg/kg i.v.
[15] = OLF olfactory bulb, unlabeled yohimbine 0.3 mg/kg i.v.
[16] = PFC prefrontal cortex, unlabeled yohimbine 0.3 mg/kg i.v.
[17] = SSC somatosensory cortex, unlabeled yohimbine 0.3 mg/kg i.v.
[18] = THAL thalamus, unlabeled yohimbine 0.3 mg/kg i.v.
[19] = unlabeled yohimbine 0.3 mg/kg vs baseline

O=S1(=O)c2cc(N3CCN4CCC3CC4)ccc2-c2cccc(F)c21 [ASEM]
increase of fP of [^18F] DBT-10 [1]: two-fold increase

COC(=O)[C@H]1[C@H]2C[C@H]3c4[nH]c5ccccc5c4CCN3C[C@H]2CC[C@@H]1O [[^3H] -rauwolscine, [^3H]rauwolscine]
pKd (α2 adrenoceptor): 9.10

C=CC1=C(C)/C(=C/c2[nH]c(Cc3[nH]c(/C=C4\NC(=O)C(C)=C4C=C)c(C)c3CCC(=O)O)c(CCC(=O)O)c2C)NC1=O [bilirubin]
rate of relaxation from plasma proteins (plasma proteins [2]): 0.6 s⁻¹

Cc1ccc(N(CC2=NCCN2)c2cccc(O)c2)cc1 [phentolamine]
selectivity between α1 and α2 adrenoceptors (α1 and α2 adrenoceptors): higher selectivity to α1 adrenoceptor

COC(=O)[C@@H]1[C@H]2C[C@H]3c4[nH]c5ccccc5c4CCN3C[C@@H]2CC[C@@H]1O [yohimbine]
fraction bound to plasma proteins (plasma proteins [3]): More than 80%
Binding potentials, BPND, percent-wise change (%) (α2 adrenoceptors [4]; [11]): (−54) %; also recorded: (−63) %; also recorded: (−82) %; also recorded: (−56) %; also recorded: (−51) %
Volumes of Distribution, VT, percent-wise change (%) (α2 adrenoceptors [4]; [11]): (19) %; also recorded: (5) %; also recorded: (0) %; also recorded: (16) %; also recorded: (27) %
Binding potentials, BPND, percent-wise change (%) (α2 adrenoceptors [4]; [12]): (−64) %; also recorded: (−59) %; also recorded: (−55) %; also recorded: (−47) %
Volumes of Distribution, VT, percent-wise change (%) (α2 adrenoceptors [4]; [12]): (−6) %; also recorded: (5) %; also recorded: (25) %; also recorded: (3) %; also recorded: (34) %
Binding potentials, BPND, percent-wise change (%) (α2 adrenoceptors [4]; HIP hippocampus, unlabeled yohimbine 0.3 mg/kg i.v.): (−59) %; also recorded: (−58) %; also recorded: (−50) %; also recorded: (−54) %; also recorded: (−46) %
Volumes of Distribution, VT, percent-wise change (%) (α2 adrenoceptors [4]; HIPP hippocampus, unlabeled yohimbine 0.3 mg/kg i.v.): (4) %; also recorded: (9) %; also recorded: (36) %; also recorded: (14) %; also recorded: (35) %
Binding potentials, BPND, percent-wise change (%) (α2 adrenoceptors [4]; [13]): (−58) %; also recorded: (−61) %; also recorded: (−65) %; also recorded: (−53) %; also recorded: (−49) %
Volumes of Distribution, VT, percent-wise change (%) (α2 adrenoceptors [4]; [13]): (7) %; also recorded: (5) %; also recorded: (13) %; also recorded: (18) %; also recorded: (33) %
Binding potentials, BPND, percent-wise change (%) (α2 adrenoceptors [4]; [14]): (−63) %; also recorded: (−65) %; also recorded: (−50) %; also recorded: (−61) %; also recorded: (−42) %
Volumes of Distribution, VT, percent-wise change (%) (α2 adrenoceptors [4]; [14]): (1) %; also recorded: (−6) %; also recorded: (39) %; also recorded: (−1) %; also recorded: (44) %
Binding potentials, BPND, percent-wise change (%) (α2 adrenoceptors [4]; [15]): (−71) %; also recorded: (−60) %; also recorded: (−78) %; also recorded: (−53) %; also recorded: (−58) %
Volumes of Distribution, VT, percent-wise change (%) (α2 adrenoceptors [4]; [15]): (−15) %; also recorded: (10) %; also recorded: (−6) %; also recorded: (22) %; also recorded: (23) %
Binding potentials, BPND, percent-wise change (%) (α2 adrenoceptors [4]; [16]): (−63) %; also recorded: (−60) %; also recorded: (−39) %; also recorded: (−61) %; also recorded: (−44) %
Volumes of Distribution, VT, percent-wise change (%) (α2 adrenoceptors [4]; [16]): (−1) %; also recorded: (4) %; also recorded: (53) %; also recorded: (0) %; also recorded: (40) %
Binding potentials, BPND, percent-wise change (%) (α2 adrenoceptors [4]; [17]): (−63) %; also recorded: (−62) %; also recorded: (−45) %; also recorded: (−59) %; also recorded: (−41) %
Volumes of Distribution, VT, percent-wise change (%) (α2 adrenoceptors [4]; [17]): (−2) %; also recorded: (0) %; also recorded: (47) %; also recorded: (3) %; also recorded: (45) %
Binding potentials, BPND, percent-wise change (%) (α2 adrenoceptors [4]; [18]): (−58) %; also recorded: (−57) %; also recorded: (−52) %; also recorded: (−44) %
Volumes of Distribution, VT, percent-wise change (%) (α2 adrenoceptors [4]; [18]): (7) %; also recorded: (22) %; also recorded: (15) %; also recorded: (37) %
degree of saturation, s (available receptors blocked) (α2 adrenoceptors [4]; average, 0.3 mg/kg yohimbine challenge, Extended Inhibition Plot): 56%
decline of BPND of [^11C]yohimbine in the challenge condition compared to baseline (α2 adrenoceptors [4]; on average, unlabeled yohimbine 0.3 mg/kg i.v.): 50–60%
effect of challenge on K1 of [^11C]yohimbine (α2 adrenoceptors [4]; [19]): markedly elevated
effect of challenge on k2′ of [^11C]yohimbine (α2 adrenoceptors [4]; [19]): higher
affinity to α2 adrenoceptor subtypes (α2 adrenoceptor subtypes): does not distinguish between the subtypes
increase of plasma free fraction fP of [^11C]yohimbine compared to baseline (plasma proteins [5]): 30%
effect on blood pressure and heart rate [6]: raise blood pressure and heart rate
global lowering of CBF ([7]; higher dose 1.6 mg/kg): 30%
effect on CBF ([7]; low dose 0.07 mg/kg): unaffected
reduction of VT of [^11C]yohimbine (α2 adrenoceptors [8]; low dose 0.07 mg/kg): approximately 30%
reduction of VT of [^11C]yohimbine (α2 adrenoceptors [8]; pre-treatment 1.7 mg/kg): failed to decrease VT further
reduction of [^11C]mirtazepin binding ([9]; 0.3 mg/kg): 23%
reduction of [^11C]mirtazepin binding ([9]; 3.0 mg/kg): 43%

lipopolysaccharide [LPS]
increase of [^11C] PBR28 VT [10]: 39%
